# Values joined by “and” are separate entries in the source; they are usually repeats but may differ in a detail not shown here. Equal entries are not always repeated. Where two headings read alike, the source gives them in different places.
# Key:
# [1] = system: cells in peripheral blood; conditions: for Number of cells, peripheral blood, average: average of group; for Number of cells, peripheral blood, individual mice: single mice
# Text: The injection was an intraperitoneally injection.
# The peripheral blood of the mice of the first and the second groups of mice under experimentation according to a) was used to determine the total number of all cells on day 0 and then on each of the following days until day 10 on several mice selected from each of the first and the second groups.
# The number of cells in peripheral blood has been evaluated as hereafter disclosed.
# cells in bone marrow = conditions: for Number of cells, bone marrow, average: average of group; for Number of cells, bone marrow, individual mice: single mice
# Description: A first group and a second group comprising each 50 mice of the Balb/c type were tested.
# On day 0 and then each day after day 0, during 10 days, the total number of cells per ml in bone marrow was determined on several mice of each of both first and second groups.
# The number of cells in bone marrow was evaluated as hereafter disclosed. The mice were killed by cervical dislocation, placed on their back on cutting board and soaked with ethanol. A long traverse cut through the skin in the middle of the abdominal area was followed by reflecting the skin from the hindquarters and the hind legs. The legs were separated from the body at the hip joint and the feet were removed. The legs were placed in a Petri dish obtaining RPMI 1640 medium (Sigma). All muscle tissue from the femurs and tibia was removed and the bones were separated (only femurs were used). The epiphyses were cut off on both ends, the bone end was punctured with a 23 G needle and flushed out with 3 ml of warm (22° C.) RPMI 1640 medium. The large debris and cell clumps were removed by layering the cell suspension over 3 ml of heat-inactivated fetal calf serum (FCS; Hyclone, Logan, Utah, USA) for 10 minutes on ice. The cells collected from the top of FCS were washed once by centrifugation at 300×g for 10 minutes at 4° C. and kept in RMPI 1640 medium containing 5% FCS. Five microliters of the cell suspension was mixed with 95 ul of Turk's solution (a mixture of 3 ml concentrated acetic acid, 3 ml of 1% crystal violet in water, Fernandez-Botran and Vetvicka “Methods in Cellular Immunology”, CRC Press, Boca Raton, 1995), and incubated for 5 minutes at room temperature. One drop of this solution has been dropped into a hemocytometer and the cells were counted under an optical microscope.
# The result of the counting is expressed in number of cells per femur×10^6.
compound,measurement,setting,value
O=P1(N(CCCl)CCCl)NCCCO1 (stereo not drawn) [cyclophosphamide],"Number of cells, peripheral blood, average",[1]; day 1,3.6 per ml × 10^5
same,"Number of cells, peripheral blood, average",[1]; day 2,3.6 per ml × 10^5
same,"Number of cells, peripheral blood, individual mice",[1]; day 2,6.6 per ml × 10^5 and 6.0 per ml × 10^5 and 6.3 per ml × 10^5
same,"Number of cells, peripheral blood, average",[1]; day 3,4.2 per ml × 10^5
same,"Number of cells, peripheral blood, individual mice",[1]; day 3,3.8 per ml × 10^5 (2×) and 5.1 per ml × 10^5
same,"Number of cells, peripheral blood, average",[1]; day 4,5.1 per ml × 10^5
same,"Number of cells, peripheral blood, average",[1]; day 5,7.2 per ml × 10^5
same,"Number of cells, peripheral blood, individual mice",[1]; day 5,4.0 per ml × 10^5 and 9.6 per ml × 10^5 and 8.1 per ml × 10^5
same,"Number of cells, peripheral blood, average",[1]; day 6,6.5 per ml × 10^5
same,"Number of cells, peripheral blood, individual mice",[1]; day 6,7.8 per ml × 10^5 and 5.0 per ml × 10^5 and 6.7 per ml × 10^5
same,"Number of cells, peripheral blood, average",[1]; day 7,6.4 per ml × 10^5
same,"Number of cells, peripheral blood, individual mice",[1]; day 7,3.8 per ml × 10^5 and 7.3 per ml × 10^5 and 8.1 per ml × 10^5
same,"Number of cells, peripheral blood, average",[1]; day 8,7.2 per ml × 10^5
same,"Number of cells, peripheral blood, individual mice",[1]; day 8,4.1 per ml × 10^5 and 8.2 per ml × 10^5 and 9.3 per ml × 10^5
same,"Number of cells, peripheral blood, average",[1]; day 9,11.2 per ml × 10^5
same,"Number of cells, peripheral blood, individual mice",[1]; day 9,8.9 per ml × 10^5 and 11.9 per ml × 10^5 and 12.9 per ml × 10^5
same,"Number of cells, peripheral blood, average",[1]; day 10,29.2 per ml × 10^5
same,"Number of cells, peripheral blood, individual mice",[1]; day 10,23.8 per ml × 10^5 and 27.8 per ml × 10^5 and 35.9 per ml × 10^5
same,"Number of cells, bone marrow, average",cells in bone marrow; day 1,1.25 per femur × 10^6
same,"Number of cells, bone marrow, individual mice",cells in bone marrow; day 1 after i.p. injection,1 per femur × 10^6 and 1.2 per femur × 10^6 and 1.4 per femur × 10^6 (2×)
same,"Number of cells, bone marrow, average",cells in bone marrow; day 2,1.25 per femur × 10^6
same,"Number of cells, bone marrow, individual mice",cells in bone marrow; day 2,0.8 per femur × 10^6 and 2.0 per femur × 10^6 and 2.4 per femur × 10^6
same,"Number of cells, bone marrow, average",cells in bone marrow; day 3,3.6 per femur × 10^6
same,"Number of cells, bone marrow, average",cells in bone marrow; day 4,2.7 per femur × 10^6
same,"Number of cells, bone marrow, average",cells in bone marrow; day 5,4.7 per femur × 10^6
same,"Number of cells, bone marrow, individual mice",cells in bone marrow; day 5,2.1 per femur × 10^6 and 6.0 per femur × 10^6 and 6.1 per femur × 10^6
same,"Number of cells, bone marrow, average",cells in bone marrow; day 6,6.4 per femur × 10^6
same,"Number of cells, bone marrow, individual mice",cells in bone marrow; day 6,6.5 per femur × 10^6 and 5.7 per femur × 10^6 and 7.0 per femur × 10^6
same,"Number of cells, bone marrow, average",cells in bone marrow; day 7,8.1 per femur × 10^6
same,"Number of cells, bone marrow, individual mice",cells in bone marrow; day 7,9.0 per femur × 10^6 and 8.1 per femur × 10^6 and 7.3 per femur × 10^6
same,"Number of cells, bone marrow, average",cells in bone marrow; day 8,6.3 per femur × 10^6
same,"Number of cells, bone marrow, individual mice",cells in bone marrow; day 8,6.0 per femur × 10^6 and 6.2 per femur × 10^6 and 6.8 per femur × 10^6
same,"Number of cells, bone marrow, average",cells in bone marrow; day 9,8.2 per femur × 10^6
same,"Number of cells, bone marrow, individual mice",cells in bone marrow; day 9,8.0 per femur × 10^6 and 8.5 per femur × 10^6 and 8.2 per femur × 10^6
same,"Number of cells, bone marrow, average",cells in bone marrow; day 10,9.4 per femur × 10^6
same,"Number of cells, bone marrow, individual mice",cells in bone marrow; day 10,7.2 per femur × 10^6 and 10.8 per femur × 10^6 and 10.3 per femur × 10^6

# — patent US7671040B2, “Chemotherapeutic antineoplastic treatment” (Laboratoires Goemar S.A., priority 2003, dated 2010)
